According to patent US12351580B2, “NLRP3 modulators” (Innate Tumor Immunity, Inc., priority 2017, dated 2025):

Key:
[1] = biological target: T1, TLR7 (Homo sapiens, UniProt Q9NYK1); test: In vitro human TLR7 binding reporter assay (HEK-Blue, NF-kB/AP1-inducible SEAP); format: cell-based; details: activity range symbols
T1 construct: host or cells: HEK-Blue cells (human HEK) co-expressing TLR7 and an NF-kB/AP1-inducible SEAP reporter
T1 sequence (Q9NYK1 27-1049): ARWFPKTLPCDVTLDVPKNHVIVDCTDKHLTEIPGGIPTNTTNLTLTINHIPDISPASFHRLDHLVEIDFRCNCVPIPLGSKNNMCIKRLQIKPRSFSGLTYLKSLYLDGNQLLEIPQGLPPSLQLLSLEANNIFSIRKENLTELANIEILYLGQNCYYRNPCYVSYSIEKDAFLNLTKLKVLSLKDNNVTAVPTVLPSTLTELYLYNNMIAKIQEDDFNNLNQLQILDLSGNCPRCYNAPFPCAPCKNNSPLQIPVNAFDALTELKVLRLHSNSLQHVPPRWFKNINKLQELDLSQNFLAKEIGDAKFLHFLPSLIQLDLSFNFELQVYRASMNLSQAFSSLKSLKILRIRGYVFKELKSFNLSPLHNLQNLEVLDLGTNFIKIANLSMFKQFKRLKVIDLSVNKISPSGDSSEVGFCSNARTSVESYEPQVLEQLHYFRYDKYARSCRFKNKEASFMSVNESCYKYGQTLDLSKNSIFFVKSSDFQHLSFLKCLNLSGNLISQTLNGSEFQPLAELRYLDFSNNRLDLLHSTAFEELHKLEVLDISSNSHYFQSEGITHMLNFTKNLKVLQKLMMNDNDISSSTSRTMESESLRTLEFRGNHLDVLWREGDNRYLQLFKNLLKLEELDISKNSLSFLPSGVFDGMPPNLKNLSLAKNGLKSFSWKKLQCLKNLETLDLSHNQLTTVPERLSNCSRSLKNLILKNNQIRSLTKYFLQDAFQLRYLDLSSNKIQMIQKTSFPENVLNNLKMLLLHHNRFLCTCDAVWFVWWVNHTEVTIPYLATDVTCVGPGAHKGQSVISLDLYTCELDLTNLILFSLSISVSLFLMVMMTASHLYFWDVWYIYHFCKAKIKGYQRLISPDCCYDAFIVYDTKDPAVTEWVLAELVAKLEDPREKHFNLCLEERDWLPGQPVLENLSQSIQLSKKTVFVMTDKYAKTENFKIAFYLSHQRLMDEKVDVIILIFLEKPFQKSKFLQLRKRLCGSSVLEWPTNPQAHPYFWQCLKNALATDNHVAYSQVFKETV
Outline: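 Reporter cells are plated at 15,000 per well and rested 24 h. Next day, test compounds or DMSO are dispensed, followed by 18 h incubation at 37 °C, 5% CO2.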

[2] = biological target: T2, TLR8 (Homo sapiens, UniProt Q9NR97); test: In vitro human TLR8 binding reporter assay (HEK-Blue, NF-kB/AP1-inducible SEAP); format: cell-based; details: activity range symbols
T2 construct: host or cells: HEK-Blue cells (human HEK) co-expressing TLR8 and an NF-kB/AP1-inducible SEAP reporter
T2 sequence (Q9NR97 27-1041): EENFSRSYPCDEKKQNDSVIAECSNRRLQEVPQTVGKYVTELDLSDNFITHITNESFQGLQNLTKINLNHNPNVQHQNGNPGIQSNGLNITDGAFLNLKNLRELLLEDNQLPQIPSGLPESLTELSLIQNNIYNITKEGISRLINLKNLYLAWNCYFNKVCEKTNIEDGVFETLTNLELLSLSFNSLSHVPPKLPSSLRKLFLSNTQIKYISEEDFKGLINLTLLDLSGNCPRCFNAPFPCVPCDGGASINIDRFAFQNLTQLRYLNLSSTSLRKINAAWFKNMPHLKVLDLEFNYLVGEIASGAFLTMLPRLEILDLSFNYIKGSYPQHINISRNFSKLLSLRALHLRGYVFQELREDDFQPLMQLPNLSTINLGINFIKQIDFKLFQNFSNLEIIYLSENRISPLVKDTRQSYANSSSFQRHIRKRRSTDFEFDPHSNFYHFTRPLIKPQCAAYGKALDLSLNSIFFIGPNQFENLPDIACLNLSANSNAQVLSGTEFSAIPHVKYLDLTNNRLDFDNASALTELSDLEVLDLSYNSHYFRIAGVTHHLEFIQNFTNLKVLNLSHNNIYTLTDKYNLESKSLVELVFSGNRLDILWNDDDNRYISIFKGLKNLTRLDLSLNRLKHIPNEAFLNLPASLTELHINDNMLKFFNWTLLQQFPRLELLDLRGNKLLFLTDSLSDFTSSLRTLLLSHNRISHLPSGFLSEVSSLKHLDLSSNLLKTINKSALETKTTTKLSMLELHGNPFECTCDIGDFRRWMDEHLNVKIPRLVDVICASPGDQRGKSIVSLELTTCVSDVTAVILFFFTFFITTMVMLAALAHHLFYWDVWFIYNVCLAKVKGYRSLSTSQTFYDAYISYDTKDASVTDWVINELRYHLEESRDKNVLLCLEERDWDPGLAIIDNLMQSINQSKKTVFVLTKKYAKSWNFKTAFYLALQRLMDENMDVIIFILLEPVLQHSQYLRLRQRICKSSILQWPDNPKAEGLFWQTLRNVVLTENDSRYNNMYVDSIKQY
Method: In Vitro Human TLR7 and TLR8 Binding Reporter Assays
Logarithmically-growing human HEK-Blue cells co-expressing a TLR7 or TLR8 gene and a NF-kB/AP1-inducible SEAP (secreted embryonic alkaline phosphatase; Invivogen, San Diego, CA) reporter gene are added to individual wells of a 384-well plate (15,000 cells per 20 μL per well) and maintained for 24 h at 37° C., 5% CO2. Test compounds or DMSO are distributed to separate wells the next day using acoustic liquid handling technology (100 nL per well) and cells are subsequently incubated for 18 h at 37° C., 5% CO2. Cellular SEAP production is measured using an Envision plate reader instrument thirty minutes after adding freshly-made Quanti-Blue reagent (prepared by following manufacturer instructions; Invivogen, San Diego, CA) to the HEK-Blue TLR Nf-kB-SEAP cell reactions. All EC50 values (half-maximal effective concentration) are determined using proprietary data analysis software.

Compound | EC50 [1] [µM] | EC50 [2] [µM]
CCOC(=O)c1cc2c(cc1Br)nc(N)c1nc(CN(CC)C(C)=O)[nH]c12 [Compound 198] | > 100 | > 100
CCN(Cc1nc2c(N)nc3ccc(Br)cc3c2[nH]1)C(=O)OC [Compound 200] | > 100 | > 100
CCN(Cc1nc2c(N)nc3ccc(Br)cc3c2[nH]1)S(C)(=O)=O [Compound 201] | > 100 | > 100
CCN(Cc1nc2c(N)nc3ccc(Br)cc3c2[nH]1)S(=O)(=O)c1ccc(C)cc1 [Compound 202] | > 100 | > 100
CCN(Cc1nc2c(N)nc3ccc(Br)cc3c2[nH]1)C(=O)C(C)C [Compound 203] | > 100 | > 100
CCN(Cc1nc2c(N)nc3ccc(Br)cc3c2[nH]1)C(=O)c1ccccc1 [Compound 204] | > 100 | > 100
CCN(Cc1nc2c(N)nc3ccccc3c2n1CCC(=O)N1CCOCC1)C(=O)OC(C)(C)C [Compound 205] | > 100 | > 100
CCN(Cc1nc2c(N)nc3ccc(-n4cccn4)cc3c2[nH]1)C(C)=O [Compound 207] | > 100 | > 100
CCN(Cc1nc2c(N)nc3cc(Br)ccc3c2n1CCCC(=O)N1CCN(C)CC1)C(C)=O [Compound 209] | > 100 | > 100
CCN(Cc1nc2c(N)nc3cc(Br)ccc3c2n1CCCC(=O)NC)C(C)=O [Compound 210] | > 100 | > 100
CCN(Cc1nc2c(N)nc3ccccc3c2n1CCC(=O)N1CCN(C(=O)OC(C)(C)C)CC1)C(=O)OC(C)(C)C [Compound 211] | > 100 | > 100
CCN(Cc1nc2c(N)nc3ccccc3c2n1CCC(=O)N1CCN(C(=O)OC(C)(C)C)CC1)C(C)=O [Compound 212] | > 100 | > 100
CCN(Cc1nc2c(N)nc3cc(Br)ccc3c2n1CCCC(=O)N(C)C)C(C)=O [Compound 213] | > 100 | > 100
CCN(Cc1nc2c(N)nc3cc(Br)ccc3c2n1CCCC(=O)N1CCOCC1)C(C)=O [Compound 214] | > 100 | > 100
CN(C)C(=O)CCCn1c(CN2CCCC2=O)nc2c(N)nc3cc(Br)ccc3c21 [Compound 215] | > 100 | > 100
COC(=O)CCCn1c(CN2CCCC2=O)nc2c(N)nc3cc(Cl)ccc3c21 [Compound 216] | > 100 | > 100
CCN(Cc1nc2c(N)nc3cc(Cl)ccc3c2n1CCCC(=O)NC)C(C)=O [Compound 217] | > 100 | > 100
CCN(Cc1nc2c(N)nc3cc(Br)ccc3c2n1CCCC(=O)OC)C(C)=O [Compound 218] | > 100 | > 100

Compound | EC50 [1] [µM] | EC50 [2] [µM]
CCN(Cc1nc2c(N)nc3cc(Cl)ccc3c2n1CCCC(=O)OC)C(C)=O [Compound 219] | > 100 | > 100
CCN(Cc1nc2c(N)nc3cc(Cl)ccc3c2n1CCCC(=O)N1CCOCC1)C(C)=O [Compound 220] | > 100 | > 100
CCN(Cc1nc2c(N)nc3cc(Cl)ccc3c2n1CCCC(=O)N1CCN(C)CC1)C(C)=O [Compound 221] | > 100 | > 100
CCN(Cc1nc2c(N)nc3cc(Cl)ccc3c2n1CCCC(=O)N1CCCC1)C(C)=O [Compound 222] | > 100 | > 100
CCN(Cc1nc2c(N)nc3ccccc3c2n1CCC(=O)N1CCS(=O)(=O)CC1)C(=O)OC(C)(C)C [Compound 223] | 20 to 100 | > 100
CCNCc1nc2c(N)nc3cc(Br)ccc3c2[nH]1 [Compound 225] | > 100 | 1 to 20
CCN(Cc1nc2c(N)nc3cc(C(F)(F)F)ccc3c2n1CCCC(=O)NC)C(=O)OC(C)(C)C [Compound 226] | > 100 | > 100
CCNCc1nc2c(N)nc3cc(C(F)(F)F)ccc3c2n1CCCC(=O)OC [Compound 227] | 20 to 100 | > 100
CCN(Cc1nc2c(N)nc3cc(C(F)(F)F)ccc3c2n1CCCC(=O)N1CCOCC1)C(=O)OC(C)(C)C [Compound 228] | > 100 | > 100
CCN(Cc1nc2c(N)nc3cc(C(F)(F)F)ccc3c2n1CCCC(=O)OC)C(C)=O [Compound 229] | > 100 | > 100
COc1ccc(-c2ccc3c(c2)nc(N)c2nc(CN4CCCC4=O)[nH]c23)cc1 [Compound 230] | > 100 | > 100
CC(=O)NCc1nc2c(N)nc3ccccc3c2[nH]1 [Compound 233] | 1 to 20 | > 100
Nc1nc2ccccc2c2[nH]c(CN3CCCC3=O)nc12 [Compound 278] | 20 to 100 | > 100
Nc1nc2cc(-c3cccnc3)ccc2c2[nH]c(CN3CCCC3=O)nc12 [Compound 279, 1-[(4-amino-7-pyridin-3-yl-1H-imidazo[4,5-c]quinolin-2-yl)methyl]pyrrolidin-2-one] | > 100 | > 100
Nc1nc2cc(-c3ccccc3)ccc2c2[nH]c(CN3CCCC3=O)nc12 [Compound 280, 1-[(4-amino-7-phenyl-1H-imidazo[4,5-c]quinolin-2-yl)methyl]pyrrolidin-2-one] | > 100 | > 100
Nc1nc2cc(-c3ccccc3Cl)ccc2c2[nH]c(CN3CCCC3=O)nc12 [Compound 281, 1-[[4-amino-7-(2-chlorophenyl)-1H-imidazo[4,5-c]quinolin-2-yl]methyl]pyrrolidin-2-one] | > 100 | > 100
Cc1ccccc1-c1ccc2c(c1)nc(N)c1nc(CN3CCCC3=O)[nH]c12 [Compound 282, 1-[[4-amino-7-(2-methylphenyl)-1H-imidazo[4,5-c]quinolin-2-yl]methyl]pyrrolidin-2-one] | > 100 | > 100
COc1ccccc1-c1ccc2c(c1)nc(N)c1nc(CN3CCCC3=O)[nH]c12 [Compound 283, 1-[[4-amino-7-(2-methoxyphenyl)-1H-imidazo[4,5-c]quinolin-2-yl]methyl]pyrrolidin-2-one] | > 100 | > 100
